Data published in the supplement of paper PMC8612539.
In brackets after ≈: the same amount, converted by molar mass.

Tested on: Mannheimia haemolytica
Experiment: minimum inhibitory concentration (MIC)
Procedure: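 Broth microdilution MIC (Sensititre BOPO7F bovine plate, CLSI methods) of 19 antimicrobials against field isolates of P. multocida, M. haemolytica, H. somni (deep nasopharyngeal swabs) and E. coli, Enterococcus spp. (rectal swabs) from weaned dairy heifers. Incubation 16-24 h at 35 C. MIC is the lowest concentration preventing visible growth. Values with <= or > lie at the tested range limits. Trimethoprim-sulfamethoxazole is given as the trimethoprim component of a 1:19 mixture.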

C=C[C@]1(C)C[C@@H](OC(=O)CSCCN(CC)CC)[C@]2(C)[C@H](C)CC[C@]3(CCC(=O)[C@H]32)[C@@H](C)[C@@H]1O [Tiamulin]
Details | minimum inhibitory concentration [µg/mL]
isolate (source animal id): 8 | 8 (≈ 16.2 µM)
isolate (source animal id): 13 | 8 (≈ 16.2 µM)
isolate (source animal id): 18 | 8 (≈ 16.2 µM)
isolate (source animal id): 21 | 8 (≈ 16.2 µM)
isolate (source animal id): 25 | 32 (≈ 64.8 µM)
isolate (source animal id): 27 | 16 (≈ 32.4 µM)
isolate (source animal id): 28 | 32 (≈ 64.8 µM)
isolate (source animal id): 30 | 8 (≈ 16.2 µM)
isolate (source animal id): 31 | 32 (≈ 64.8 µM)
isolate (source animal id): 32 | 8 (≈ 16.2 µM)
isolate (source animal id): 34 | 8 (≈ 16.2 µM)
isolate (source animal id): 36 | 32 (≈ 64.8 µM)
isolate (source animal id): 37 | 16 (≈ 32.4 µM)
isolate (source animal id): 40 | 8 (≈ 16.2 µM)
isolate (source animal id): 41 | 8 (≈ 16.2 µM)
isolate (source animal id): 43 | 8 (≈ 16.2 µM)
isolate (source animal id): 46 | 32 (≈ 64.8 µM)
isolate (source animal id): 49 | 16 (≈ 32.4 µM)
isolate (source animal id): 50 | 32 (≈ 64.8 µM)
isolate (source animal id): 51 | 8 (≈ 16.2 µM)
isolate (source animal id): 52 | 8 (≈ 16.2 µM)
isolate (source animal id): 53 | 8 (≈ 16.2 µM)
isolate (source animal id): 55 | 8 (≈ 16.2 µM)
isolate (source animal id): 56 | 8 (≈ 16.2 µM)
isolate (source animal id): 57 | 8 (≈ 16.2 µM)
isolate (source animal id): 100 | 16 (≈ 32.4 µM)
isolate (source animal id): 103 | 32 (≈ 64.8 µM)
isolate (source animal id): 107 | 16 (≈ 32.4 µM)
isolate (source animal id): 108 | 16 (≈ 32.4 µM)
isolate (source animal id): 112 | 16 (≈ 32.4 µM)
isolate (source animal id): 113 | 8 (≈ 16.2 µM)
isolate (source animal id): 121 | 32 (≈ 64.8 µM)
isolate (source animal id): 122 | 16 (≈ 32.4 µM)
isolate (source animal id): 123 | 8 (≈ 16.2 µM)
isolate (source animal id): 126 | 32 (≈ 64.8 µM)
isolate (source animal id): 133 | 8 (≈ 16.2 µM)
isolate (source animal id): 135 | 8 (≈ 16.2 µM)
isolate (source animal id): 138 | 32 (≈ 64.8 µM)
isolate (source animal id): 141 | 8 (≈ 16.2 µM)
isolate (source animal id): 142 | 32 (≈ 64.8 µM)
isolate (source animal id): 145 | 32 (≈ 64.8 µM)
isolate (source animal id): 149 | 8 (≈ 16.2 µM)
isolate (source animal id): 151 | 16 (≈ 32.4 µM)
isolate (source animal id): 152 | 32 (≈ 64.8 µM)
isolate (source animal id): 154 | 16 (≈ 32.4 µM)
isolate (source animal id): 159 | 32 (≈ 64.8 µM)
isolate (source animal id): 162 | 16 (≈ 32.4 µM)
isolate (source animal id): 170 | > 32
isolate (source animal id): 171 | 16 (≈ 32.4 µM)
isolate (source animal id): 172 | 32 (≈ 64.8 µM)
isolate (source animal id): 173 | > 32
isolate (source animal id): 179 | 16 (≈ 32.4 µM)
isolate (source animal id): 180 | 16 (≈ 32.4 µM)
isolate (source animal id): 183 | 8 (≈ 16.2 µM)
isolate (source animal id): 186 | 8 (≈ 16.2 µM)
isolate (source animal id): 187 | 16 (≈ 32.4 µM)
isolate (source animal id): 188 | 8 (≈ 16.2 µM)
isolate (source animal id): 190 | 16 (≈ 32.4 µM)
isolate (source animal id): 191 | > 32
isolate (source animal id): 192 | 16 (≈ 32.4 µM)
isolate (source animal id): 201 | > 32
isolate (source animal id): 202 | > 32
isolate (source animal id): 209 | > 32
isolate (source animal id): 211 | 32 (≈ 64.8 µM)
isolate (source animal id): 220 | 32 (≈ 64.8 µM)
isolate (source animal id): 221 | > 32
isolate (source animal id): 223 | > 32
isolate (source animal id): 233 | 32 (≈ 64.8 µM)
isolate (source animal id): 237 | 32 (≈ 64.8 µM)
isolate (source animal id): 241 | > 32
isolate (source animal id): 252 | 32 (≈ 64.8 µM)
isolate (source animal id): 253 | 16 (≈ 32.4 µM)
isolate (source animal id): 259 | 16 (≈ 32.4 µM)
isolate (source animal id): 260 | 32 (≈ 64.8 µM)
isolate (source animal id): 262 | 32 (≈ 64.8 µM)
isolate (source animal id): 282 | 32 (≈ 64.8 µM)
isolate (source animal id): 287 | 32 (≈ 64.8 µM)
isolate (source animal id): 288 | 8 (≈ 16.2 µM)
isolate (source animal id): 291 | 16 (≈ 32.4 µM)
isolate (source animal id): 293 | 32 (≈ 64.8 µM)
isolate (source animal id): 298 | 16 (≈ 32.4 µM)
isolate (source animal id): 299 | 16 (≈ 32.4 µM)
isolate (source animal id): 300 | 8 (≈ 16.2 µM)
isolate (source animal id): 302 | 16 (≈ 32.4 µM)
isolate (source animal id): 304 | 16 (≈ 32.4 µM)
isolate (source animal id): 306 | 8 (≈ 16.2 µM)
isolate (source animal id): 308 | 8 (≈ 16.2 µM)
isolate (source animal id): 309 | 8 (≈ 16.2 µM)
isolate (source animal id): 313 | 32 (≈ 64.8 µM)
isolate (source animal id): 318 | 16 (≈ 32.4 µM)
isolate (source animal id): 320 | 16 (≈ 32.4 µM)
isolate (source animal id): 321 | 32 (≈ 64.8 µM)
isolate (source animal id): 323 | 16 (≈ 32.4 µM)
isolate (source animal id): 324 | 32 (≈ 64.8 µM)
isolate (source animal id): 326 | > 32
isolate (source animal id): 328 | 32 (≈ 64.8 µM)
isolate (source animal id): 329 | 32 (≈ 64.8 µM)
isolate (source animal id): 333 | 32 (≈ 64.8 µM)
isolate (source animal id): 335 | 16 (≈ 32.4 µM)
isolate (source animal id): 338 | 32 (≈ 64.8 µM)

CC[C@H]1OC(=O)C[C@@H](O)[C@H](C)[C@@H](O[C@@H]2O[C@H](C)[C@@H](O)[C@H](N(C)C)[C@H]2O)[C@@H](CCN2CCCCC2)C[C@@H](C)C(=O)/C=C/C(C)=C/[C@@H]1CN1CCCCC1 [Tildipirosin]
Details | minimum inhibitory concentration [µg/mL]
isolate (source animal id): 8 | ≤ 1
isolate (source animal id): 13 | ≤ 1
isolate (source animal id): 18 | ≤ 1
isolate (source animal id): 21 | ≤ 1
isolate (source animal id): 25 | 16 (≈ 21.8 µM)
isolate (source animal id): 27 | 16 (≈ 21.8 µM)
isolate (source animal id): 28 | 4 (≈ 5.45 µM)
isolate (source animal id): 30 | ≤ 1
isolate (source animal id): 31 | 4 (≈ 5.45 µM)
isolate (source animal id): 32 | ≤ 1
isolate (source animal id): 34 | ≤ 1
isolate (source animal id): 36 | 16 (≈ 21.8 µM)
isolate (source animal id): 37 | 16 (≈ 21.8 µM)
isolate (source animal id): 40 | ≤ 1
isolate (source animal id): 41 | ≤ 1
isolate (source animal id): 43 | ≤ 1
isolate (source animal id): 46 | 16 (≈ 21.8 µM)
isolate (source animal id): 49 | 16 (≈ 21.8 µM)
isolate (source animal id): 50 | 16 (≈ 21.8 µM)
isolate (source animal id): 51 | ≤ 1
isolate (source animal id): 52 | ≤ 1
isolate (source animal id): 53 | ≤ 1
isolate (source animal id): 55 | ≤ 1
isolate (source animal id): 56 | ≤ 1
isolate (source animal id): 57 | > 16
isolate (source animal id): 100 | 16 (≈ 21.8 µM)
isolate (source animal id): 103 | 16 (≈ 21.8 µM)
isolate (source animal id): 107 | 16 (≈ 21.8 µM)
isolate (source animal id): 108 | 16 (≈ 21.8 µM)
isolate (source animal id): 112 | > 16
isolate (source animal id): 113 | > 16
isolate (source animal id): 121 | 16 (≈ 21.8 µM)
isolate (source animal id): 122 | 2 (≈ 2.72 µM)
isolate (source animal id): 123 | > 16
isolate (source animal id): 126 | > 16
isolate (source animal id): 133 | > 16
isolate (source animal id): 135 | > 16
isolate (source animal id): 138 | > 16
isolate (source animal id): 141 | > 16
isolate (source animal id): 142 | > 16
isolate (source animal id): 145 | 4 (≈ 5.45 µM)
isolate (source animal id): 149 | 2 (≈ 2.72 µM)
isolate (source animal id): 151 | 2 (≈ 2.72 µM)
isolate (source animal id): 152 | 16 (≈ 21.8 µM)
isolate (source animal id): 154 | ≤ 1
isolate (source animal id): 159 | > 16
isolate (source animal id): 162 | > 16
isolate (source animal id): 170 | 2 (≈ 2.72 µM)
isolate (source animal id): 171 | ≤ 1
isolate (source animal id): 172 | 2 (≈ 2.72 µM)
isolate (source animal id): 173 | 2 (≈ 2.72 µM)
isolate (source animal id): 179 | 2 (≈ 2.72 µM)
isolate (source animal id): 180 | ≤ 1
isolate (source animal id): 183 | ≤ 1
isolate (source animal id): 186 | ≤ 1
isolate (source animal id): 187 | ≤ 1
isolate (source animal id): 188 | ≤ 1
isolate (source animal id): 190 | ≤ 1
isolate (source animal id): 191 | 2 (≈ 2.72 µM)
isolate (source animal id): 192 | ≤ 1
isolate (source animal id): 201 | 2 (≈ 2.72 µM)
isolate (source animal id): 202 | 4 (≈ 5.45 µM)
isolate (source animal id): 209 | 2 (≈ 2.72 µM)
isolate (source animal id): 211 | 2 (≈ 2.72 µM)
isolate (source animal id): 220 | 2 (≈ 2.72 µM)
isolate (source animal id): 221 | 2 (≈ 2.72 µM)
isolate (source animal id): 223 | 2 (≈ 2.72 µM)
isolate (source animal id): 233 | 8 (≈ 10.9 µM)
isolate (source animal id): 237 | 16 (≈ 21.8 µM)
isolate (source animal id): 241 | 16 (≈ 21.8 µM)
isolate (source animal id): 252 | 16 (≈ 21.8 µM)
isolate (source animal id): 253 | 16 (≈ 21.8 µM)
isolate (source animal id): 259 | > 16
isolate (source animal id): 260 | > 16
isolate (source animal id): 262 | 16 (≈ 21.8 µM)
isolate (source animal id): 282 | > 16
isolate (source animal id): 287 | > 16
isolate (source animal id): 288 | ≤ 1
isolate (source animal id): 291 | ≤ 1
isolate (source animal id): 293 | 16 (≈ 21.8 µM)
isolate (source animal id): 298 | > 16
isolate (source animal id): 299 | > 16
isolate (source animal id): 300 | ≤ 1
isolate (source animal id): 302 | > 16
isolate (source animal id): 304 | > 16
isolate (source animal id): 306 | ≤ 1
isolate (source animal id): 308 | ≤ 1
isolate (source animal id): 309 | ≤ 1
isolate (source animal id): 313 | > 16
isolate (source animal id): 318 | 8 (≈ 10.9 µM)
isolate (source animal id): 320 | ≤ 1
isolate (source animal id): 321 | > 16
isolate (source animal id): 323 | > 16
isolate (source animal id): 324 | 16 (≈ 21.8 µM)
isolate (source animal id): 326 | > 16
isolate (source animal id): 328 | > 16
isolate (source animal id): 329 | > 16
isolate (source animal id): 333 | > 16
isolate (source animal id): 335 | 16 (≈ 21.8 µM)
isolate (source animal id): 338 | 16 (≈ 21.8 µM)
